Data: patent EP4806891A1 (Kangbaida (Sichuan) Biotechnology Co., Ltd., priority 2023, dated 2025)

These molecules were tested against T1, HEK-Blue-hTLR9 cells (Homo sapiens, UniProt Q9NR96) (assay: HEK-Blue-hTLR9 cell inhibition assay). Settings: ODN2006 1 µM, 16 h, OD 620 nm, read-out: TLR9 IC50.
T1 construct: expressed in transfected cells; host or cells: HEK-Blue-hTLR9 cells (HEK293-derived reporter line)
T1 sequence (Q9NR96 26-1032): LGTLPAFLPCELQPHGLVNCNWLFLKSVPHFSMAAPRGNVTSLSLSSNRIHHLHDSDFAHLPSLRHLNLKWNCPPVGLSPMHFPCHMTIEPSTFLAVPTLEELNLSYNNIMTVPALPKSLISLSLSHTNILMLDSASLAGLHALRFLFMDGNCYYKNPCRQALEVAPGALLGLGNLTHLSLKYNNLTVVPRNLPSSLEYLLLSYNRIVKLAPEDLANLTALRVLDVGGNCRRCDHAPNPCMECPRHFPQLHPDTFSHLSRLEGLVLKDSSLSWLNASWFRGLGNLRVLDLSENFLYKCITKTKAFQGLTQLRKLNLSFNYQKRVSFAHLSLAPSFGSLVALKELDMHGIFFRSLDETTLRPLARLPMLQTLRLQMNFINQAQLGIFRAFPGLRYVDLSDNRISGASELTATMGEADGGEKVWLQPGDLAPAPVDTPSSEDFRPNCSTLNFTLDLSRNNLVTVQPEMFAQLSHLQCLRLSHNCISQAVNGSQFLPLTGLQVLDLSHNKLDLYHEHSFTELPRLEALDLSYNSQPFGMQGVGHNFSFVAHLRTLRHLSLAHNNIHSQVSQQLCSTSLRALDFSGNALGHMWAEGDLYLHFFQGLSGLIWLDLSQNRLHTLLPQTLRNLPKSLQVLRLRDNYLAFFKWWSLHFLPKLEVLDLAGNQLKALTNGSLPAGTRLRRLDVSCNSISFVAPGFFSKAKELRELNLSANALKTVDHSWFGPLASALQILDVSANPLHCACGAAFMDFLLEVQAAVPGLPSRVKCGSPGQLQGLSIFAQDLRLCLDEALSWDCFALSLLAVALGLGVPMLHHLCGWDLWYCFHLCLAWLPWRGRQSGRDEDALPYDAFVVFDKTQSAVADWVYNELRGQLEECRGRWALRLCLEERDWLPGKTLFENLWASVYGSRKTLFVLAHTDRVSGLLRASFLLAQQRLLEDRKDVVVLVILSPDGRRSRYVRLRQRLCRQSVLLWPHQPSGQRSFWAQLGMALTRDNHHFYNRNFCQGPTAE
Assay type: cell-based
Method: HEK-Blue-hTLR7/8/9 cell inhibition assay
1. HEK-Blue-hTLR7/8 cells (1 × 10^4 cells/well) and HEK-Blue-hTLR9 cells (1.5 × 10^4 cells/well) were seeded in a 384-well cell culture plate, with a volume of 30 µL per well. The plate was incubated at 37°C in a 5% CO2 incubator for 4 h. 2. The compound was prepared with DMSO and diluted in DMEM medium to 10 concentrations (1:3 dilution), with final concentrations of 10000, 3333.3, 1111.1, 370.4, 123.5, 41.2, 13.7, 4.6, 1.5, and 0.5 nM; R848 was prepared with DMSO and diluted in DMEM medium, with final concentrations of 0.8 µM (HEK-Blue-hTLR7) and 3 µM (HEK-Blue-hTLR8); ODN2006 was prepared with endotoxin-free water and diluted in DMEM medium, with a final concentration of 1 µM. 3. Cells treated with DMSO were used as the blank control group, while cells treated solely with Resiquimod (R848) were used as the positive control group for HEK-Blue-hTLR7/8, and cells treated solely with ODN2006 were used as the positive control group for HEK-Blue-hTLR9. Cells treated with the test compound together with R848 or ODN2006 were used as the test group. Two parallel wells were set for each group and were placed at 37°C in a 5% CO2 incubator for incubation. 4. After being incubated for 4 h, the 384-well plate of HEK-Blue-hTLR7/8 was taken out from the incubator, and R848 alone or both R848 and the diluted compound were separately added into each well. The plate was placed at 37°C in a 5% CO2 incubator for incubation for 16 h; the 384-well plate of HEK-Blue-hTLR9 was taken out from the incubator, and ODN2006 alone or both ODN2006 and the diluted compound were added separately to each well. The plate was incubated at 37°C in a 5% CO2 incubator for 16 h. 5. After being incubated for 16 h, the 384-well plate was removed from the incubator and centrifuged at 1000 rpm for 1 minute. The optical density value of each well at 620 nm was measured using a multifunctional microplate reader. 6. The cell inhibition rate was calculated as (1-(OD620 test group-OD620 blank group)/(OD620 positive group-OD620 blank group))×100%, and the half maximal inhibitory concentration (IC50) was calculated through curve fitting. Table 1: Activity of the compounds of the present disclosure in HEK-Blue-hTLR7/8/9 cellular assays
N#Cc1ccc(N2C[C@]3(c4nnc([C@H]5CC[C@H](N)CC5)o4)C[C@]3(C(F)(F)F)C2)c2cccnc12 [Compound 20, 5-((1S,5R)-1-(5-((1R,4S)-4-aminocyclohexyl)-1,3,4-oxadiazol-2-yl)-5-(trifluoromethyl)-3-azabicyclo[3.1.0]hexan-3-yl)quinoline-8-carbonitrile] showed an IC50 of over 1 µM. CN1CCC(Cc2nnc([C@]34CN(c5ccc(C#N)c6ncccc56)C[C@@]3(C(F)(F)F)C4)n2C)CC1 [Compound 38, 5-((1S,5R)-1-(4-methyl-5-((1-methylpiperidin-4-yl)methyl)-4H-1,2,4-triazol-3-yl)-5-(trifluoromethyl)-3-azabicyclo[3.1.0]hexan-3-yl)quinoline-8-carbonitrile] showed an IC50 of over 10 µM. Work on CN1CCC(F)(c2nnc([C@]34CN(c5ccc(C#N)n6nccc56)C[C@@]3(C(F)(F)F)C4)o2)CC1 [Compound 90, 4-((1S,5R)-1-(5-(4-fluoro-1-methylpiperidin-4-yl)-1,3,4-oxadiazol-2-yl)-5-(trifluoromethyl)-3-azabicyclo[3.1.0]hexan-3-yl)pyrazolo[1,5-a]pyridine-7-carbonitrile] yielded an IC50 of over 1 µM. In the case of CN1CCC(Oc2nnc([C@]34CN(c5ccc(C#N)n6ncc(F)c56)C[C@@]3(C(F)(F)F)C4)o2)CC1 [Compound 31, 3-fluoro-4-((1S,5R)-1-(5-((1-methylpiperidin-4-yl)oxy)-1,3,4-oxadiazol-2-yl)-5-(trifluoromethyl)-3-azabicyclo[3.1.0]hexan-3-yl)pyrazolo[1,5-a]pyridine-7-carbonitrile], the IC50 is reported as over 1 µM. In the case of N#Cc1ccc(N2C[C@]3(c4nnc(CCN5CCOCC5)o4)C[C@]3(C(F)(F)F)C2)c2cccnc12 [Compound 43, 5-((1S,5R)-1-(5-(morpholinoethyl)-1,3,4-oxadiazol-2-yl)-5-(trifluoromethyl)-3-azabicyclo[3.1.0]hexan-3-yl)quinoline-8-carbonitrile], the IC50 is reported as over 10 µM. CN1CC(Cc2nnc([C@]34CN(c5ccc(C(F)(F)F)c6ncccc56)C[C@@]3(C(F)(F)F)C4)o2)C1 [Compound 95, 2-((1-methylazetidin-3-yl)methyl)-5-((1S,5R)-5-(trifluoromethyl)-3-(8-(trifluoromethyl)quinolin-5-yl)-3-azabicyclo[3.1.0]hexan-1-yl)-1,3,4-oxadiazole] was tested, and the IC50 was over 1 µM. With CN1CCC(c2nnc([C@]34CN(c5c(Br)cc(C#N)n6ncc(Br)c56)C[C@@]3(C(F)(F)F)C4)o2)CC1 [Compound 85, 3,5-dibromo-4-((1S,5R)-1-(5-(1-methylpiperidin-4-yl)-1,3,4-oxadiazol-2-yl)-5-(trifluoromethyl)-3-azabicyclo[3.1.0]hexan-3-yl)pyrazolo[1,5-a]pyridine-7-carbonitrile] the IC50 was over 1 µM. Molecule N#Cc1ccc(N2C[C@]3(c4nnc(CN5CCOCC5)o4)C[C@]3(C(F)(F)F)C2)c2cccnc12 [Compound 40, 5-((1S,5R)-1-(5-(morpholinomethyl)-1,3,4-oxadiazol-2-yl)-5-(trifluoromethyl)-3-azabicyclo[3.1.0]hexan-3-yl)quinoline-8-carbonitrile] has an IC50 of over 10 µM. For CN1CCC(c2nnc([C@]34CN(c5ccc(C#N)c6ncccc56)C[C@@]3(C(F)(F)F)C4)[nH]2)CC1 [Compound 9, 5-((1S,5R)-1-(5-(1-methylpiperidin-4-yl)-4H-1,2,4-triazol-3-yl)-5-(trifluoromethyl)-3-azabicyclo[3.1.0]hexan-3-yl)quinoline-8-carbonitrile], the IC50 was over 1 µM. For N#Cc1ccc(N2C[C@]3(c4nnc(C5(F)CCNC5)o4)C[C@]3(C(F)(F)F)C2)c2cccnc12 (stereo partly drawn) [Compound 46, 5-((1S,5R)-1-(5-(3-fluoropyrrolidin-3-yl)-1,3,4-oxadiazol-2-yl)-5-(trifluoromethyl)-3-azabicyclo[3.1.0]hexan-3-yl)quinoline-8-carbonitrile], the IC50 was over 10 µM. FC(F)(F)c1ccc(N2C[C@]3(c4nnc(C5(F)CCNCC5)o4)C[C@]3(C(F)(F)F)C2)c2cccnc12 [Compound 3, 2-(4-fluoropiperidin-4-yl)-5-((1S,5R)-5-(trifluoromethyl)-3-(8-(trifluoromethyl)quinolin-5-yl)-3-azabicyclo[3.1.0]hexan-1-yl)-1,3,4-oxadiazole] showed an IC50 of over 1 µM. With CN1CC(c2nnc([C@]34CN(c5ccc(C#N)c6ncccc56)C[C@@]3(C(F)(F)F)C4)o2)C1 [Compound 39, 5-((1S,5R)-1-(5-(1-methylazetidin-3-yl)-1,3,4-oxadiazol-2-yl)-5-(trifluoromethyl)-3-azabicyclo[3.1.0]hexan-3-yl)quinoline-8-carbonitrile] the IC50 was over 1 µM. Molecule CN1CCC(Oc2nnc([C@]34CN(c5ccc(C#N)c6ncccc56)C[C@@]3(C(F)(F)F)C4)o2)CC1 [Compound 15, 5-((1S,5R)-1-(5-((1-methylpiperidin-4-yl)oxy)-1,3,4-oxadiazol-2-yl)-5-(trifluoromethyl)-3-azabicyclo[3.1.0]hexan-3-yl)quinoline-8-carbonitrile] has an IC50 of over 1 µM. CC1(C)CC(Cc2nnc([C@]34CN(c5ccc(C#N)c6ncccc56)C[C@@]3(C(F)(F)F)C4)o2)CC(C)(C)N1 [Compound 26, 5-((1S,5R)-1-(5-((2,2,6,6-tetramethylpiperidin-4-yl)methyl)-1,3,4-oxadiazol-2-yl)-5-(trifluoromethyl)-3-azabicyclo[3.1.0]hexan-3-yl)quinoline-8-carbonitrile] gave an IC50 of over 1 µM. For CN1CC(F)(c2nnc([C@]34CN(c5ccc(C#N)c6ncccc56)C[C@@]3(C(F)(F)F)C4)o2)C1 [Compound 49, 5-((1S,5R)-1-(5-(3-fluoro-1-methylazetidin-3-yl)-1,3,4-oxadiazol-2-yl)-5-(trifluoromethyl)-3-azabicyclo[3.1.0]hexan-3-yl)quinoline-8-carbonitrile], the IC50 was over 10 µM. CN1CCC(c2nnc([C@]34CN(c5c(Br)cc(C#N)n6nccc56)C[C@@]3(C(F)(F)F)C4)o2)CC1 [Compound 86, 5-bromo-4-((1S,5R)-1-(5-(1-methylpiperidin-4-yl)-1,3,4-oxadiazol-2-yl)-5-(trifluoromethyl)-3-azabicyclo[3.1.0]hexan-3-yl)pyrazolo[1,5-a]pyridine-7-carbonitrile] gave an IC50 of over 1 µM. With CN1CC2CC1CC2c1nnc([C@]23CN(c4ccc(C#N)c5ncccc45)C[C@@]2(C(F)(F)F)C3)o1 (stereo partly drawn) [Compound 14, 5-((1S,5R)-1-(5-(2-methyl-2-azabicyclo[2.2.1]heptan-5-yl)-1,3,4-oxadiazol-2-yl)-5-(trifluoromethyl)-3-azabicyclo[3.1.0]hexan-3-yl)quinoline-8-carbonitrile] the IC50 was over 1 µM. In the case of CN1CCC(c2nnc([C@]34CN(c5ccc(C#N)c6ncccc56)C[C@@]3(C(F)(F)F)C4)o2)C(F)C1 (stereo partly drawn) [Compound 50, 5-((1S,5R)-1-(5-(3-fluoro-1-methylpiperidin-4-yl)-1,3,4-oxadiazol-2-yl)-5-(trifluoromethyl)-3-azabicyclo[3.1.0]hexan-3-yl)quinoline-8-carbonitrile], the IC50 is reported as over 1 µM.
